Here are results for two molecules from US20250098679A1, “HERBICIDAL PYRIDONE DERIVATIVES” (SYNGENTA CROP PROTECTION AG, priority 2021, published 2025).

Assay type in all cases: in vivo
What all share (details): evaluated after 13 days

Test [1] relates to Setaria faberi (SETFA). As to the kind of experiment: Pre-emergence Test, Setaria faberi (SETFA).
The subject of test [2] is Echinochloa crus-galli (ECHCG). As to the kind of experiment: Pre-emergence Test, Echinochloa crus-galli (ECHCG).
Test [3] has as its system Zea mays (ZEAMX). As to the kind of experiment: Pre-emergence Test, Zea mays (ZEAMX).
In test [4] the test system is Ipomoea hederacea (IPOHE). As to the kind of experiment: Pre-emergence Test, Ipomoea hederacea (IPOHE).
Test [5] concerns Amaranthus palmeri (AMAPA). As to the kind of experiment: Pre-emergence Test, Amaranthus palmeri (AMAPA).
Test [6] concerns Amaranthus retoflexus (AMARE). As to the kind of experiment: Pre-emergence Test, Amaranthus retoflexus (AMARE).
Test [7] relates to Setaria faberi (SETFA). As to the kind of experiment: Post-emergence Test, Setaria faberi (SETFA). Further details: key to percentage damage caused to the plant, SETFA (five-point scale): 5=81-100%, 4=61-80%, 3=41-60%, 2=21-40%, 1=0-20% damage. In outline: (§1)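 Pots sprayed with compound in acetone/water (50:50) with 0.5% Tween 20, at 1000 g/ha unless noted, glasshouse 24/16 °C, 14 h light, 65% humidity. Damage scored 13 days after spraying on a five-point scale (5=81-100% to 1=0-20%).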

Test [8] relates to Echinochloa crus-galli (ECHCG). As to the kind of experiment: Post-emergence Test, Echinochloa crus-galli (ECHCG). Further details: key to percentage damage caused to the plant, ECHCG (five-point scale): 5=81-100%, 4=61-80%, 3=41-60%, 2=21-40%, 1=0-20% damage. An outline of the steps: as §1
Test [9] concerns Zea mays (ZEAMX). As to the kind of experiment: Post-emergence Test, Zea mays (ZEAMX). Further details: key to percentage damage caused to the plant, ZEAMX (five-point scale): 5=81-100%, 4=61-80%, 3=41-60%, 2=21-40%, 1=0-20% damage. An outline of the steps: as §1
In test [10] the test system is Ipomoea hederacea (IPOHE). As to the kind of experiment: Post-emergence Test, Ipomoea hederacea (IPOHE). Further details: key to percentage damage caused to the plant, IPOHE (five-point scale): 5=81-100%, 4=61-80%, 3=41-60%, 2=21-40%, 1=0-20% damage. In outline: as §1
Test [11] has as its system Amaranthus palmeri (AMAPA). As to the kind of experiment: Post-emergence Test, Amaranthus palmeri (AMAPA). Details: key: 5=81-100%, 4=61-80%, 3=41-60%, 2=21-40%, 1=0-20% damage. In outline: as §1
The subject of test [12] is Amaranthus retoflexus (AMARE). As to the kind of experiment: Post-emergence Test, Amaranthus retoflexus (AMARE). Details: key to percentage damage caused to the plant, AMARE (five-point scale): 5=81-100%, 4=61-80%, 3=41-60%, 2=21-40%, 1=0-20% damage. An outline of the steps: as §1

`CCn1c(Cn2nccc2C#N)cc(=O)c(C(=O)O)c1-c1ccc(Cl)c(Cl)c1` [Compound 176, 6-[(5-cyanopyrazol-1-yl)methyl]-2-(3,4-dichlorophenyl)-1-ethyl-4-oxo-pyridine-3-carboxylic acid]: the “Pre-emergence Test SETFA, percentage damage caused to the plant (five-point scale)” value in test [1] (250 g/Ha (*)) and in test [1] (1000 g/ha) was 4 (4=61-80%) each time. Moreover, the “Pre-emergence Test ECHCG, percentage damage caused to the plant (five-point scale)” value in test [2] (250 g/Ha (*)) is 2 (2=21-40%); in test [2] (1000 g/ha), 4 (4=61-80%). Further, the “Pre-emergence Test ZEAMX, percentage damage caused to the plant (five-point scale)” value in [3] (250 g/Ha (*)) and in [3] (1000 g/ha) was 0 each time. Further, the “Pre-emergence Test IPOHE, percentage damage caused to the plant (five-point scale)” value is given as 0 in [4] (250 g/Ha (*)) and 1 (1=0-20%) in test [4] (1000 g/ha). The entries for the “Pre-emergence Test AMAPA, percentage damage caused to the plant (five-point scale)” value in test [5] (250 g/Ha (*)) and in test [5] (1000 g/ha) were 1 (1=0-20%) and 2 (2=21-40%), respectively. For the same molecule, the “Pre-emergence Test AMARE, percentage damage caused to the plant (five-point scale)” value in test [6] (250 g/Ha (*)) and in [6] (1000 g/ha) was 0 in each case. The results for the “percentage damage caused to the plant, SETFA (five-point scale)” value in [7] (250 g/Ha) and in test [7] (1000 g/ha) were 2 (2=21-40%) and 4 (4=61-80%), respectively. For the same molecule, the “percentage damage caused to the plant, ECHCG (five-point scale)” value in [8] (250 g/Ha) was 2 (2=21-40%); in test [8] (1000 g/ha), 4 (4=61-80%). Also, the “percentage damage caused to the plant, ZEAMX (five-point scale)” value is on record as 0 in test [9] (250 g/Ha) and 1 (1=0-20%) in test [9] (1000 g/ha). The “percentage damage caused to the plant, IPOHE (five-point scale)” value in test [10] (250 g/Ha) is listed as 2 (2=21-40%); in test [10] (1000 g/ha) it was 3 (3=41-60%). Further, the “percentage damage caused to the plant, AMAPA (five-point scale)” value in test [11] (250 g/Ha) stood at 0. The “percentage damage caused to the plant, AMARE (five-point scale)” value in test [12] (250 g/Ha) is 0; in [12] (1000 g/ha) it was 3 (3=41-60%).

With `CCn1c(Cn2ccc(C(F)F)n2)cc(=O)c(C(=O)O)c1-c1ccc(Cl)c(Cl)c1` [Compound 186], the “Pre-emergence Test SETFA, percentage damage caused to the plant (five-point scale)” value in test [1] (250 g/Ha (*)) and in [1] (1000 g/ha) was 5 (5=81-100%) in each case. The “Pre-emergence Test ECHCG, percentage damage caused to the plant (five-point scale)” value in [2] (250 g/Ha (*)) is 4 (4=61-80%); in test [2] (1000 g/ha) it was 5 (5=81-100%). Further, the “Pre-emergence Test ZEAMX, percentage damage caused to the plant (five-point scale)” value in test [3] (250 g/Ha (*)) is listed as 0; in test [3] (1000 g/ha), 3 (3=41-60%). The results for the “Pre-emergence Test IPOHE, percentage damage caused to the plant (five-point scale)” value in test [4] (250 g/Ha (*)) and in test [4] (1000 g/ha) were 2 (2=21-40%) and 4 (4=61-80%), respectively. Further, the figures for the “Pre-emergence Test AMAPA, percentage damage caused to the plant (five-point scale)” value in test [5] (250 g/Ha (*)) and in test [5] (1000 g/ha) were 0 and 1 (1=0-20%), respectively. For the same molecule, the figures for the “Pre-emergence Test AMARE, percentage damage caused to the plant (five-point scale)” value in [6] (250 g/Ha (*)) and in test [6] (1000 g/ha) were 0 and 2 (2=21-40%), respectively. Further, the “percentage damage caused to the plant, SETFA (five-point scale)” value in test [7] (250 g/Ha) and in test [7] (1000 g/ha) was 4 (4=61-80%) in each case. Besides, the “percentage damage caused to the plant, ECHCG (five-point scale)” value in test [8] (250 g/Ha) and in test [8] (1000 g/ha) was 4 (4=61-80%) each time. Moreover, the “percentage damage caused to the plant, ZEAMX (five-point scale)” value in test [9] (250 g/Ha) and in test [9] (1000 g/ha) was 1 (1=0-20%) each time. The “percentage damage caused to the plant, IPOHE (five-point scale)” value in test [10] (250 g/Ha) and in [10] (1000 g/ha) was 4 (4=61-80%) throughout. In addition, the “percentage damage caused to the plant, AMAPA (five-point scale)” value in test [11] (250 g/Ha) and in test [11] (1000 g/ha) was 2 (2=21-40%) in each case. For the same molecule, the entries for the “percentage damage caused to the plant, AMARE (five-point scale)” value in [12] (250 g/Ha) and in [12] (1000 g/ha) were 1 (1=0-20%) and 3 (3=41-60%), respectively.
